Test results published in ChEMBL document CHEMBL1681651, “A broad spectrum anticancer nucleoside with selective toxicity against human colon cells in vitro” (2011).

What was measured:
Assay type in all cases: functional
[1] = tested on: TK-10; assay: Growth inhibition of human TK10 cells assessed as cell growth at 1 uM after 48 hrs by SRB assay; details: TK-10, 48 h, read-out: Activity
[2] = tested on: CCRF-CEM; assay: Growth inhibition of human CCRF-CEM cells assessed as cell growth at 10 uM after 48 hrs by SRB assay; details: read-out: Activity
[3] = Growth inhibition of human […] cells assessed as cell growth at 10 uM after 48 hrs by SRB assay; details: read-out: Activity
[4] = tested on: A549; assay: Growth inhibition of human A549 cells assessed as cell growth at 10 uM after 48 hrs by SRB assay; details: A549, 48 h, read-out: Activity
[5] = tested on: NCI-H23; assay: Growth inhibition of human NCI-H23 cells assessed as cell growth at 10 uM after 48 hrs by SRB assay; details: NCI-H23, 48 h, read-out: Activity
[6] = tested on: HT-29; assay: Growth inhibition of human HT-29 cells assessed as cell growth at 10 uM after 48 hrs by SRB assay; details: HT-29, 48 h, read-out: Activity
[7] = tested on: NCI-H23; assay: Growth inhibition of human NCI-H23 cells after 48 hrs by […] growth inhibition assay; details: NCI-H23, 48 h
[8] = tested on: NCI-H460; assay: Growth inhibition of human NCI-H460 cells after 48 hrs by […] growth inhibition assay; details: NCI-H460, 48 h
[9] = tested on: COLO 205; assay: Growth inhibition of human COLO205 cells after 48 hrs by […] growth inhibition assay; details: COLO 205, 48 h
[10] = tested on: UACC-62; assay: Growth inhibition of human UACC62 cells after 48 hrs by […] growth inhibition assay; details: UACC-62, 48 h
[11] = tested on: U-251; assay: Growth inhibition of human U251 cells after 48 hrs by […] growth inhibition assay; details: U-251, 48 h
[12] = tested on: 786-0; assay: Growth inhibition of human 786-0 cells after 48 hrs by […] growth inhibition assay; details: 786-0, 48 h
[13] = tested on: UO-31; assay: Growth inhibition of human UO31 cells after 48 hrs by […] growth inhibition assay; details: UO-31, 48 h
[14] = tested on: CCRF-CEM; assay: Growth inhibition of human CCRF-CEM cells assessed as cell growth at 0.1 uM after 48 hrs by SRB assay; details: read-out: Activity
[15] = tested on: NCI-H23; assay: Growth inhibition of human NCI-H23 cells assessed as cell growth at 0.1 uM after 48 hrs by SRB assay; details: NCI-H23, 48 h, read-out: Activity
[16] = tested on: NCI-H522; assay: Growth inhibition of human NCI-H522 cells assessed as cell growth at 0.1 uM after 48 hrs by SRB assay; details: NCI-H522, 48 h, read-out: Activity
[17] = tested on: A498; assay: Growth inhibition of human A498 cells assessed as cell growth at 0.1 uM after 48 hrs by SRB assay; details: A498, 48 h, read-out: Activity
[18] = tested on: UACC-62; assay: Growth inhibition of human UACC62 cells assessed as cell growth at 10 uM after 48 hrs by SRB assay; details: UACC-62, 48 h, read-out: Activity
[19] = tested on: OVCAR-5; assay: Growth inhibition of human OVCAR5 cells assessed as cell growth at 10 uM after 48 hrs by SRB assay; details: OVCAR-5, 48 h, read-out: Activity
[20] = tested on: A498; assay: Growth inhibition of human A498 cells assessed as cell growth at 10 uM after 48 hrs by SRB assay; details: A498, 48 h, read-out: Activity
[21] = tested on: TK-10; assay: Growth inhibition of human TK10 cells assessed as cell growth at 10 uM after 48 hrs by SRB assay; details: TK-10, 48 h, read-out: Activity
[22] = tested on: BT-549; assay: Growth inhibition of human BT549 cells assessed as cell growth at 10 uM after 48 hrs by SRB assay; details: BT-549, 48 h, read-out: Activity
[23] = tested on: A549; assay: Growth inhibition of human A549 cells assessed as cell growth at 100 uM after 48 hrs by SRB assay; details: A549, 48 h, read-out: Activity
[24] = tested on: KM12; assay: Growth inhibition of human KM12 cells assessed as cell growth at 100 uM after 48 hrs by SRB assay; details: KM12, 48 h, read-out: Activity
[25] = tested on: 786-0; assay: Growth inhibition of human 786-0 cells assessed as cell growth at 100 uM after 48 hrs by SRB assay; details: 786-0, 48 h, read-out: Activity
[26] = tested on: UO-31; assay: Growth inhibition of human UO31 cells assessed as cell growth at 100 uM after 48 hrs by SRB assay; details: UO-31, 48 h, read-out: Activity
[27] = tested on: BT-549; assay: Growth inhibition of human BT549 cells assessed as cell growth at 100 uM after 48 hrs by SRB assay; details: BT-549, 48 h, read-out: Activity
[28] = tested on: HT-29; assay: Growth inhibition of human HT-29 cells assessed as cell growth at 1 mM after 48 hrs by SRB assay; details: HT-29, 48 h, read-out: Activity
[29] = tested on: SN12C; assay: Growth inhibition of human SN12C cells assessed as cell growth at 1 mM after 48 hrs by SRB assay; details: read-out: Activity
[30] = tested on: NCI/ADR-RES; assay: Growth inhibition of human NCI/ADR-RES cells after 48 hrs by SRB assay
[31] = tested on: NCI-H460; assay: Growth inhibition of human NCI-H460 cells assessed as cell growth at 1 uM after 48 hrs by SRB assay; details: NCI-H460, 48 h, read-out: Activity
[32] = tested on: SK-MEL-5; assay: Growth inhibition of human SK-MEL-5 cells assessed as cell growth at 1 uM after 48 hrs by SRB assay; details: SK-MEL-5, 48 h, read-out: Activity
[33] = read-out: LC50 (the source's name)
[34] = read-out: pLC50 (the source's name) (converted)

Structure (SMILES): CCOC(=O)C[C@H]1[C@@H](O[Si](C)(C)C(C)(C)C)[C@H](n2cnc3c(NC(=O)Nc4ccccc4)ncnc32)O[C@@H]1CNC(=O)NC
- growth at 1 µM [1]: 103%
- growth at 10 µM [2]: 92%
- growth at 10 µM [3]: 53%
- growth at 10 µM [4]: 94%
- growth at 10 µM [5]: 100%
- growth at 10 µM [6]: 104%
- GI50 ([7]; read-out: GI50): 33.3 µM
- CC50 [7, 33]: > 100 µM
- TGI ([7]; read-out: TGI): > 100 µM
- GI50 ([7]; read-out: pGI50 (converted)): 33.1 µM
- CC50 [7, 34]: > 100 µM
- TGI ([7]; read-out: pTGI (converted)): > 100 µM
- GI50 ([8]; read-out: GI50): 5.54 µM
- CC50 [8, 33]: > 100 µM
- TGI ([8]; read-out: TGI): 25 µM
- GI50 ([8]; read-out: pGI50 (converted)): 5.5 µM
- CC50 [8, 34]: > 100 µM
- TGI ([8]; read-out: pTGI (converted)): 25.1 µM
- GI50 ([9]; read-out: GI50): 3.84 µM
- CC50 [9, 33]: > 100 µM
- TGI ([9]; read-out: TGI): > 100 µM
- GI50 ([9]; read-out: pGI50 (converted)): 3.8 µM
- CC50 [9, 34]: > 100 µM
- TGI ([9]; read-out: pTGI (converted)): > 100 µM
- GI50 ([10]; read-out: GI50): > 100 µM
- CC50 [10, 33]: > 100 µM
- TGI ([10]; read-out: TGI): > 100 µM
- GI50 ([10]; read-out: pGI50 (converted)): > 100 µM
- CC50 [10, 34]: > 100 µM
- TGI ([10]; read-out: pTGI (converted)): > 100 µM
- GI50 ([11]; read-out: GI50): 4.69 µM
- CC50 [11, 33]: 76 µM
- TGI ([11]; read-out: TGI): 20.9 µM
- GI50 ([11]; read-out: pGI50 (converted)): 4.68 µM
- CC50 [11, 34]: 75.9 µM
- TGI ([11]; read-out: pTGI (converted)): 20.9 µM
- GI50 ([12]; read-out: GI50): 2 µM
- CC50 [12, 33]: 17.9 µM
- TGI ([12]; read-out: TGI): 5.21 µM
- GI50 ([12]; read-out: pGI50 (converted)): 2 µM
- CC50 [12, 34]: 17.8 µM
- TGI ([12]; read-out: pTGI (converted)): 5.25 µM
- GI50 ([13]; read-out: GI50): 12.1 µM
- CC50 [13, 33]: 71.7 µM
- TGI ([13]; read-out: TGI): 29.5 µM
- GI50 ([13]; read-out: pGI50 (converted)): 12 µM
- CC50 [13, 34]: 72.4 µM
- TGI ([13]; read-out: pTGI (converted)): 29.5 µM
- growth at 0.1 µM [14]: 96%
- growth at 0.1 µM [15]: 101%
- growth at 0.1 µM [16]: 89%
- growth at 0.1 µM [17]: 95%
- growth at 10 µM [18]: 97%
- growth at 10 µM [19]: 95%
- growth at 10 µM [20]: 91%
- growth at 10 µM [21]: 105%
- growth at 10 µM [22]: 110%
- growth at 100 µM [23]: 23%
- growth at 100 µM [24]: 13%
- growth at 100 µM [25]: -34%
- growth at 100 µM [26]: 61%
- growth at 100 µM [27]: 67%
- growth at 1000 µM [28]: 3%
- growth at 1000 µM [29]: 11%
- GI50 ([30]; read-out: GI50): > 100 µM
- CC50 [30, 33]: > 100 µM
- TGI ([30]; read-out: TGI): > 100 µM
- GI50 ([30]; read-out: pGI50 (converted)): > 100 µM
- CC50 [30, 34]: > 100 µM
- TGI ([30]; read-out: pTGI (converted)): > 100 µM
- growth at 1 µM [31]: 102%
- growth at 1 µM [32]: 100%
